Molecules are shown by their SMILES.

Test [1] has as its target T1, G1 APOL1 (Homo sapiens, UniProt O14791, I384M/S342G).
T1 construct: expressed in transfected cells
T1 sequence (O14791 28-398 S342G/I384M): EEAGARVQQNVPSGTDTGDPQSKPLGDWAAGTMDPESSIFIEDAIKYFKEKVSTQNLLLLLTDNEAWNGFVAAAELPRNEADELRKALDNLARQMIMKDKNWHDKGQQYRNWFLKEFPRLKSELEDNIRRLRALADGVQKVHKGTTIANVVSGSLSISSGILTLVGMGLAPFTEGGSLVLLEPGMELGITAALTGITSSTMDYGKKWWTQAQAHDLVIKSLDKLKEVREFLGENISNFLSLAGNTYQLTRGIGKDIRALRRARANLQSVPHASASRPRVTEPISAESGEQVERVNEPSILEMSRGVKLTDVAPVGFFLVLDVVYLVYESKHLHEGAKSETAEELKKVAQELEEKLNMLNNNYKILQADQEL
The test is described as follows: Acute APOL1 Thallium Assay with inducible stable clones of HEK 293 cells. Format: cell-based. Conditions: HEK 293 T-Rex inducible stable clone expressing G1 APOL1; read-out: Thallium Assay (IC50). In outline:
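APOL1 pore function was measured as thallium influx, detected by a Tl+-sensitive fluorescent dye loaded as AM ester, on a FLIPR Tetra after Tl+ addition. Cells were HEK T-Rex G1 APOL1 clone DC3.25, 26,000 per well, induced with tetracycline at plating in Opti-MEM assay medium.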

Test [2] has as its target T2, APOL1 G1 Protein (Homo sapiens, UniProt O14791, I384M/S342G).
T2 sequence (O14791 28-398 S342G/I384M): T1 sequence (O14791 28-398 S342G/I384M)
The test is described as follows: Trypanosoma brucei brucei lysis assay using APOL1 recombinant protein (AlamarBlue viability). The test is classed as cell-based. Conditions: Trypanosoma brucei brucei lysis with recombinant APOL1 protein. On the technique in general: Alamar Blue is a resazurin reagent that responds to reducing activity.

Consider `Cc1ccc(-c2[nH]c3c(F)cc(F)cc3c2C2CC(N)C2)cc1` (mixture of isomers) [Compound 4, 3-[5,7-difluoro-2-(p-tolyl)-1H-indol-3-yl]cyclobutanamine], for which the IC50 in test [1] and in test [2] was less than 0.25 µM each time.
With `NC1CC(c2c(-c3ccc(Cl)cc3)[nH]c3c(F)cc(F)cc23)C1` (mixture of isomers) [Compound 10, 3-[2-(4-chlorophenyl)-5,7-difluoro-1H-indol-3-yl]cyclobutanamine], the IC50 in test [1] and in test [2] was less than 0.25 µM in each case.
As for `COc1ccc(-c2[nH]c3c(F)cc(F)cc3c2C2CC(N)C2)cc1` (mixture of isomers) [Compound 12, 3-[5,7-difluoro-2-(4-methoxyphenyl)-1H-indol-3-yl]cyclobutanamine], the IC50 (in general, the concentration that gives 50% inhibition) in test [1] is 0.25 to 1 µM; in test [2] it was less than 0.25 µM.
For `CC(=O)OC1CC(c2c(-c3ccc(F)cc3)[nH]c3c(F)cc(F)cc23)C1` (mixture of isomers) [Compound 173, [3-[5,7-difluoro-2-(4-fluorophenyl)-1H-indol-3-yl]cyclobutyl]acetate], the IC50 in test [1] is 0.25 to 1 µM; in test [2] it was less than 0.25 µM.
On to `NCC1CC(c2c(-c3ccc(Cl)cc3)[nH]c3c(F)cc(F)cc23)C1` (mixture of isomers) [Compound 176, (3-(2-(4-chlorophenyl)-5,7-difluoro-1H-indol-3-yl)cyclobutyl)methanamine], for which the half-inhibitory concentration (IC50) in test [1] and in test [2] was less than 0.25 µM in each case.
Turning to `NCC1CC(c2c(-c3ccc(F)cc3)[nH]c3c(F)cc(F)cc23)C1` (mixture of isomers) [Compound 186, (3-(5,7-difluoro-2-(4-fluorophenyl)-1H-indol-3-yl)cyclobutyl)methanamine], the IC50 in test [1] and in test [2] was less than 0.25 µM throughout.
`N[C@H]1CC[C@H](c2c(-c3ccc(F)cc3)[nH]c3c(F)cc(F)cc32)CC1` (single isomer, unassigned) [Compound 434, Trans-4-[5,7-difluoro-2-(4-fluorophenyl)-1H-indol-3-yl]cyclohexanamine]: the IC50 is 0.25 to 1 µM in test [1] and less than 0.25 µM in test [2].
For `NC1CC(c2c(-c3ccc(F)cc3)[nH]c3c(F)cccc23)C1` (centres unmarked) [Compound 6, 3-[7-fluoro-2-(4-fluorophenyl)-1H-indol-3-yl]cyclobutanamine], the IC50 is 0.25 to 1 µM in test [1] and less than 0.25 µM in test [2].
For `O=C(CO)NC1CC(c2c(-c3ccc(F)cc3)[nH]c3c(F)cc(F)cc23)C1` (centres unmarked) [Compound 15, N-[3-[5,7-difluoro-2-(4-fluorophenyl)-1H-indol-3-yl]cyclobutyl]-2-hydroxy-acetamide], in that order: less than 0.25 µM and 0.25 to 1 µM.
The matching figures for `CC(C)(O)CC(=O)NC1CC(c2c(-c3ccc(F)cc3)[nH]c3c(F)cc(F)cc23)C1` (centres unmarked) [Compound 16, N-[3-[5,7-difluoro-2-(4-fluorophenyl)-1H-indol-3-yl]cyclobutyl]-3-hydroxy-3-methyl-butanamide]: 0.25 to 1 µM and 0.25 to 1 µM.
The matching figures for `CC(=O)NC1CC(c2c(-c3ccc(F)cc3)[nH]c3c(F)cc(F)cc23)C1` (centres unmarked) [Compound 17, N-[3-[5,7-difluoro-2-(4-fluorophenyl)-1H-indol-3-yl]cyclobutyl]acetamide]: 0.25 to 1 µM and 0.25 to 1 µM.
Consider `COCC(=O)NC1CC(c2c(-c3ccc(F)cc3)[nH]c3c(F)cc(F)cc23)C1` (centres unmarked) [Compound 18, N-[3-[5,7-difluoro-2-(4-fluorophenyl)-1H-indol-3-yl]cyclobutyl]-2-methoxy-acetamide], for which the IC50 in test [1] and in test [2] was 0.25 to 1 µM in each case.
`O[C@H]1C[C@H](c2c(-c3ccc(F)cc3)[nH]c3c(F)cc(F)cc32)C1` [Compound 174, (1r,3r)-3-(5,7-difluoro-2-(4-fluorophenyl)-1H-indol-3-yl)cyclobutan-1-ol]: the IC50 in test [1] and in test [2] was less than 0.25 µM throughout.
As for `NCC1CC(c2c(-c3ccc(OC(F)(F)F)cc3)[nH]c3c(F)cc(F)cc23)C1` (centres unmarked) [Compound 180], the half-inhibitory concentration (IC50) in test [1] and in test [2] was less than 0.25 µM each time.
As to `Cc1cccc(-c2[nH]c3c(F)cc(F)cc3c2C2CC(CN)C2)c1` (centres unmarked) [Compound 181], the IC50 in test [1] and in test [2] was less than 0.25 µM each time.
As to `NCC1CC(c2c(-c3ccc(OC(F)F)cc3)[nH]c3c(F)cc(F)cc23)C1` (centres unmarked) [Compound 182], the half-maximal inhibitory concentration (IC50) in test [1] and in test [2] was less than 0.25 µM throughout.
Take `COc1ccc(-c2[nH]c3c(F)cc(F)cc3c2C2CC(CN)C2)cc1` (centres unmarked) [Compound 183]: the IC50 in test [1] and in test [2] was less than 0.25 µM each time.
In the case of `Cc1ccc(-c2[nH]c3c(F)cc(F)cc3c2C2CC(CN)C2)cc1` (centres unmarked) [Compound 184], the IC50 in test [1] and in test [2] was less than 0.25 µM in each case.
`N#Cc1ccc(-c2[nH]c3c(F)cc(F)cc3c2C2CC(CN)C2)cc1` (centres unmarked) [Compound 185]: the IC50 in test [1] and in test [2] was less than 0.25 µM throughout.
Consider `NC[C@H]1C[C@@H](c2c(-c3ccc(F)cc3)[nH]c3c(F)cc(F)cc32)C1` [Compound 187, ((1s,3s)-3-(5,7-difluoro-2-(4-fluorophenyl)-1H-indol-3-yl)cyclobutyl)methanamine], for which the IC50 in test [1] and in test [2] was less than 0.25 µM in each case.
Take `NC[C@H]1C[C@H](c2c(-c3ccc(F)cc3)[nH]c3c(F)cc(F)cc32)C1` [Compound 188, ((1r,3r)-3-(5,7-difluoro-2-(4-fluorophenyl)-1H-indol-3-yl)cyclobutyl)methanamine]: the IC50 in test [1] and in test [2] was less than 0.25 µM in each case.
In the case of `O=C(CO)NCC1CC(c2c(-c3ccc(F)cc3)[nH]c3c(F)cc(F)cc23)C1` (centres unmarked) [Compound 214], the IC50 in test [1] and in test [2] was 0.25 to 1 µM in each case.
As for `OCCNCC1CC(c2c(-c3ccc(F)cc3)[nH]c3c(F)cc(F)cc23)C1` (centres unmarked) [Compound 374, 2-[[3-[5,7-difluoro-2-(4-fluorophenyl)-1H-indol-3-yl]cyclobutyl]methylamino]ethanol], the IC50 in test [1] and in test [2] was less than 0.25 µM in each case.
Turning to `COCCNCC1CC(c2c(-c3ccc(F)cc3)[nH]c3c(F)cc(F)cc23)C1` (centres unmarked) [Compound 375], the IC50 in test [1] and in test [2] was less than 0.25 µM each time.
In the case of `OCC1CC(c2c(-c3ccc(F)cc3)[nH]c3c(F)cc(F)cc23)C1` (centres unmarked) [Compound 424, [3-[5,7-difluoro-2-(4-fluorophenyl)-1H-indol-3-yl]cyclobutyl]methanol], the IC50 in test [1] and in test [2] was less than 0.25 µM each time.
Take `CC1(CN)CC(c2c(-c3ccc(F)cc3)[nH]c3c(F)cc(F)cc23)C1` (centres unmarked) [Compound 426, [3-[5,7-difluoro-2-(4-fluorophenyl)-1H-indol-3-yl]-1-methyl-cyclobutyl]methanamine]: the IC50 in test [1] was 0.25 to 1 µM; in test [2], less than 0.25 µM.
The matching figures for `NCC1(O)CC(c2c(-c3ccc(F)cc3)[nH]c3c(F)cc(F)cc23)C1` (centres unmarked) [Compound 427, 1-(aminomethyl)-3-[5,7-difluoro-2-(4-fluorophenyl)-1H-indol-3-yl]cyclobutanol]: 0.25 to 1 µM and less than 0.25 µM.
`NC1CC2(C1)CC(c1c(-c3ccc(F)cc3)[nH]c3c(F)cc(F)cc13)C2` (centres unmarked) [Compound 432, 6-[5,7-difluoro-2-(4-fluorophenyl)-1H-indol-3-yl]spiro[3.3]heptan-2-amine]: the IC50 in test [1] was more than 1 µM; in test [2], less than 0.25 µM.
For `NC1CCC(c2c(-c3ccc(F)cc3)[nH]c3c(F)cc(F)cc23)CC1` (centres unmarked) [Compound 433, 4-[5,7-difluoro-2-(4-fluorophenyl)-1H-indol-3-yl]cyclohexanamine], in that order: less than 0.25 µM and less than 0.25 µM.
The matching figures for `O=C(C1CCO1)N1CCC(Cc2c(-c3ccc(F)cc3)[nH]c3c(F)cc(F)cc23)C1` (centres unmarked) [Compound 443, [3-[[5,7-difluoro-2-(4-fluorophenyl)-1H-indol-3-yl]methyl]pyrrolidin-1-yl]-(oxetan-2-yl)methanone]: 0.25 to 1 µM and 0.25 to 1 µM.
The matching figures for `CC(=O)N1CCC(Cc2c(-c3ccc(F)cc3)[nH]c3c(F)cc(F)cc23)C1` (centres unmarked) [Compound 444, 1-(3-((5,7-difluoro-2-(4-fluorophenyl)-1H-indol-3-yl)methyl)pyrrolidin-1-yl)ethan-1-one]: more than 1 µM and 0.25 to 1 µM.

Source of the values: patent US12281102B2, “Inhibitors of APOL1 and methods of using same” (Vertex Pharmaceuticals Incorporated, priority 2020, dated 2025).
